According to patent publication US10800772B2 (Gilead Sciences, Inc., priority 2016, dated 2020):
pEC50: −log10 of the molar value.

Columns and labels:
Format in all cases: cell-based, HIV-1
HIV-IIIb (wildtype) = assay: Antiviral assay in MT4 cells, HIV-IIIb wildtype; conditions: Human immunodeficiency virus 1, IIIB, MT4, 120 h, read-out: WT EC50
Method in brief: (§1)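 MT4 cells were pre-infected 3 h at 37 °C with HIV-IIIb (0.004 m.o.i.): wildtype, or IN T174I virus from breakthrough or from dose-escalation passaging. Cells (2000/well) were exposed to 10-point 3-fold compound dilutions in quadruplicate for 5 days at 37 °C. EC50 was the concentration giving 50% decrease in CellTiter-Glo luminescence.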

HIV-IIIb IN T174I BT = assay: Antiviral assay in MT4 cells, HIV-IIIb IN T174I BT virus (from viral breakthrough); conditions: Human immunodeficiency virus 1, IIIB, MT4, 120 h, read-out: T174I BT EC50, MT4 cells, HIV-IIIb IN T174I BT (viral breakthrough), 5 days, CellTiter-Glo
Method in brief: as §1

HIV-IIIb IN T174I DE = assay: Antiviral assay in MT4 cells, HIV-IIIb IN T174I DE virus (from dose escalation passaging); conditions: Human immunodeficiency virus 1, IIIB, MT4, 120 h, read-out: T174I DE EC50, MT4 cells, HIV-IIIb IN T174I DE (dose escalation), 5 days, CellTiter-Glo
Method in brief: as §1

| SMILES | pEC50 (HIV-IIIb (wildtype)) | pEC50 (HIV-IIIb IN T174I BT) | pEC50 (HIV-IIIb IN T174I DE) |
| --- | --- | --- | --- |
| CC(=O)N1CC(N2CCC(c3nn(C4CC4)c4ccc(-c5nc6cc(C)c([C@H](OC(C)(C)C)C(=O)O)c(-c7ccc(Cl)cc7)c6s5)nc34)CC2)C1 [Compound 182, (S)-2-(2-(3-(1-(1-acetylazetidin-3-yl)piperidin-4-yl)-1-cyclopropyl-1H-pyrazolo[4,3-b]pyridin-5-yl)-7-(4-chlorophenyl)-5-methylbenzo [d]thiazol-6-yl)-2-(tert-butoxy) acetic acid] | 8.70 | 7.57 | 7.23 |
| CC(=O)N1CC(N2CCC(c3nn(C(F)F)c4ccc(-c5nc6cc(C)c([C@H](OC(C)(C)C)C(=O)O)c(-c7ccc(Cl)cc7)c6s5)nc34)CC2)C1 [Compound 183, (S)-2-(2-(3-(1-(1-acetylazetidin-3-yl)piperidin-4-yl)-1-(difluoromethyl)-1H-pyrazolo [4,3-b]pyridin-5-yl)-7-(4-chloro-phenyl)-5-methylbenzo[d]thiazol-6-yl)-2-(tert-butoxy) acetic acid] | 8.70 | 7.54 | 7.16 |
| Cc1cc2nc(-c3ccc4c(n3)c(C3CCN([C@H]5C[C@H](O)C5)CC3)nn4C)sc2c(-c2ccc(Cl)cc2)c1[C@H](OC(C)(C)C)C(=O)O [Compound 186, (S)-2-(tert-butoxy)-2-(7-(4-chloro-phenyl)-2-(3-(1-((1r,3r)-3-hydroxy-cyclobutyl)piperidin-4-yl)-1-methyl-1H-pyrazolo[4,3-b]pyridin-5-yl)-5-methylbenzo[d]thiazol-6-yl) acetic acid] | 7.54 | 6.44 | 6.11 |
| Cc1cc2nc(-c3ccc4c(n3)c(C3CCN(C5CC5)CC3)nn4C)sc2c(-c2ccc(Cl)cc2)c1[C@H](OC(C)(C)C)C(=O)O [Compound 187, (S)-2-(tert-butoxy)-2-(7-(4-chloro-phenyl)-2-(3-(1-cyclopropyl-piperidin-4-yl)-1-methyl-1H-pyrazolo[4,3-b]pyridin-5-yl)-5-methylbenzo[d]thiazol-6-yl) acetic acid] | 8.40 | 6.47 | 6.07 |
| CC(=O)N1CC(N2CCC(c3c4nc(-c5nc6cc(C)c([C@H](OC(C)(C)C)C(=O)O)c(-c7ccc(Cl)cc7)c6s5)ccc4nn3C(F)F)CC2)C1 [Compound 189, (S)-2-(2-(3-(1-(1-acetylazetidin-3-yl)piperidin-4-yl)-2-(difluoromethyl)-2H-pyrazolo [4,3-b]pyridin-5-yl)-7-(4-chloro-phenyl)-5-methylbenzo[d]thiazol-6-yl)-2-(tert-butoxy) acetic acid] | 7.92 | 5.99 | 5.85 |
| COC(=O)N1CC(N2CCC(c3c4nc(-c5nc6cc(C)c([C@H](OC(C)(C)C)C(=O)O)c(-c7ccc(Cl)cc7)c6s5)ccc4nn3C(F)F)CC2)C1 [Compound 190, (S)-2-(tert-butoxy)-2-(7-(4-chloro-phenyl)-2-(2-(difluoromethyl)-3-(1-(1-(methoxy-carbonyl)azetidin-3-yl)piperidin-4-yl)-2H-pyrazolo [4,3-b]pyridin-5-yl)-5-methylbenzo [d]thiazol-6-yl) acetic acid] | 8.22 | 5.75 | 5.56 |
| [2H]C([2H])([2H])n1nc(C2CCN(C3CN(C(=O)OC)C3)CC2)c2nc(-c3nc4cc(C)c([C@H](OC(C)(C)C)C(=O)O)c(-c5ccc(Cl)cc5)c4s3)ccc21 [Compound 191, (S)-2-(tert-butoxy)-2-(7-(4-chloro-phenyl)-2-(3-(1-(1-(methoxycarbonyl)azetidin-3-yl)piperidin-4-yl)-1-(methyl-d3)-1H-pyrazolo[4,3-b]pyridin-5-yl)-5-methylbenzo[d]thiazol-6-yl) acetic acid] | 8.70 | 7.26 | 6.97 |
| [2H]C([2H])([2H])n1nc(C2CCN(C3CN(C(C)=O)C3)CC2)c2nc(-c3nc4cc(C)c([C@H](OC(C)(C)C)C(=O)O)c(-c5ccc(Cl)cc5)c4s3)ccc21 [Compound 192, (S)-2-(2-(3-(1-(1-acetylazetidin-3-yl)piperidin-4-yl)-1-(methyl-d3)-1H-pyrazolo [4,3-b]pyridin-5-yl)-7-(4-chloro-phenyl)-5-methylbenzo[d]thiazol-6-yl)-2-(tert-butoxy) acetic acid] | 9.00 | 7.55 | 7.26 |
| COC(=O)N1CC[C@H](N2CCC(c3nn(C)c4ccc(-c5nc6cc(C)c([C@H](OC(C)(C)C)C(=O)O)c(-c7ccc(Cl)cc7)c6s5)nc34)CC2)C1 [Compound 193, (S)-2-(tert-butoxy)-2-(7-(4-chloro-phenyl)-2-(3-(1-((S)-l-(methoxy-carbonyl)pyrrolidin-3-yl)piperidin-4-yl)-1-methyl-1H-pyrazolo[4,3-b]pyridin-5-yl)-5-methylbenzo[d]thiazol-6-yl) acetic acid] | 8.52 | 7.06 | 6.58 |
| Cc1cc2nc(-c3ccc4c(n3)c(C3CCN(C5COC5)CC3)nn4C(F)F)sc2c(-c2ccc(Cl)cc2)c1[C@H](OC(C)(C)C)C(=O)O [Compound 194, (S)-2-(tert-butoxy)-2-(7-(4-chloro-phenyl)-2-(1-(difluoromethyl)-3-(1-(oxetan-3-yl)piperidin-4-yl)-1H-pyrazolo [4,3-b]pyridin-5-yl)-5-methylbenzo [d]thiazol-6-yl) acetic acid] | 8.40 | 6.90 | 6.52 |
| Cc1cc2nc(-c3ccc4c(n3)c(N3CCN(C5CS(=O)(=O)C5)CC3)nn4C)sc2c(-c2ccc(Cl)cc2)c1[C@H](OC(C)(C)C)C(=O)O [Compound 198, (S)-2-(tert-butoxy)-2-(7-(4-chloro-phenyl)-2-(3-(4-(1,1-dioxidothietan-3-yl)piperazin-1-yl)-1-methyl-1H-pyrazolo[4,3-b]pyridin-5-yl)-5-methylbenzo[d]thiazol-6-yl) acetic acid] | 8.05 | 5.98 | 5.34 |
| COC(=O)N1CC(N2CCC(c3cn(C)c4ncc(-c5nc6cc(C)c([C@H](OC(C)(C)C)C(=O)O)c(-c7ccc(Cl)cc7)c6s5)nc34)CC2)C1 [Compound 199, (S)-2-(tert-butoxy)-2-(7-(4-chloro-phenyl)-2-(7-(1-(1-(methoxycarbonyl)azetidin-3-yl)piperidin-4-yl)-5-methyl-5H-pyrrolo[2,3-b]pyrazin-2-yl)-5-methylbenzo[d]thiazol-6-yl) acetic acid] | 8.40 | 6.83 | 6.11 |
| CC(=O)N1CC(N2CCC(c3cn(C)c4ncc(-c5nc6cc(C)c([C@H](OC(C)(C)C)C(=O)O)c(-c7ccc(Cl)cc7)c6s5)nc34)CC2)C1 [Compound 200, (S)-2-(2-(7-(1-(1-acetylazetidin-3-yl)piperidin-4-yl)-5-methyl-5H-pyrrolo[2,3-b]pyrazin-2-yl)-7-(4-chlorophenyl)-5-methylbenzo [d]thiazol-6-yl)-2-(tert-butoxy) acetic acid] | 9.00 | 7.05 | 6.62 |
| COC(=O)N1CC[C@@H](N2CCC(c3cn(C)c4ncc(-c5nc6cc(C)c([C@H](OC(C)(C)C)C(=O)O)c(-c7ccc(Cl)cc7)c6s5)cc34)CC2)C1 [Compound 201, (S)-2-(tert-butoxy)-2-(7-(4-chloro-phenyl)-2-(3-(1-((R)-1-(methoxy-carbonyl)pyrrolidin-3-yl)piperidin-4-yl)-1-methyl-1H-pyrrolo[2,3-b]pyridin-5-yl)-5-methylbenzo[d]thiazol-6-yl) acetic acid] | 8.15 | 7.04 | 6.28 |
| COC(=O)N1CC(N2CCC(c3cn(C)c4ncc(-c5nc6cc(C)c([C@H](OC(C)(C)C)C(=O)O)c(-c7ccc(Cl)cc7)c6s5)cc34)CC2)C1 [Compound 203, (S)-2-(tert-butoxy)-2-(7-(4-chloro-phenyl)-2-(3-(1-(1-(methoxycarbonyl)azetidin-3-yl)piperidin-4-yl)-1-methyl-1H-pyrrolo[2,3-b]pyridin-5-yl)-5-methylbenzo[d]thiazol-6-yl) acetic acid] | 7.96 | 6.67 | 6.15 |
| CC(=O)N1CC(N2CCC(c3cn(C)c4ncc(-c5nc6cc(C)c([C@H](OC(C)(C)C)C(=O)O)c(-c7ccc(Cl)cc7)c6s5)cc34)CC2)C1 [Compound 204, (S)-2-(2-(3-(1-(1-acetylazetidin-3-yl)piperidin-4-yl)-1-methyl-1H-pyrrolo[2,3-b]pyridin-5-yl)-7-(4-chlorophenyl)-5-methylbenzo [d]thiazol-6-yl)-2-(tert-butoxy) acetic acid] | 7.82 | 6.59 | 6.20 |
| Cc1cc2nc(-c3ccc4c(c3)c(N3CCN5C(=O)COC[C@H]5C3)nn4C)sc2c(-c2ccc(Cl)cc2)c1[C@H](OC(C)(C)C)C(=O)O [Compound 205, (S)-2-(tert-butoxy)-2-(7-(4-chloro-phenyl)-5-methyl-2-(1-methyl-3-((R)-4-oxohexa-hydropyrazino [2,1-c][1,4]oxazin-8(1H)-yl)-1H-indazol-5-yl)benzo[d]thiazol-6-yl)acetic acid] | 8.15 | 6.34 | 6.13 |
| Cc1cc2nc(-c3ccc4c(c3)c(N3CCN([C@H]5C[C@@H](O)C5)CC3)nn4C)sc2c(-c2ccc(Cl)cc2)c1[C@H](OC(C)(C)C)C(=O)O [Compound 206, (S)-2-(tert-butoxy)-2-(7-(4-chloro-phenyl)-2-(3-(4-((1s,3s)-3-hydroxy-cyclobutyl)piperazin-1-yl)-1-methyl-1H-indazol-5-yl)-5-methylbenzo[d]thiazol-6-yl) acetic acid] | 7.68 | 6.47 | 6.27 |
